Assay results: PMC9030691, “Toxicokinetics of β-Amanitin in Mice and In Vitro Drug–Drug Interaction Potential” (Pharmaceutics, 2022)
Read-outs that look alike come from different tables or passages of the source.

Tests used:
Format in all cases: in vitro ADME
CYP2C9 = target: T1, CYP2C9 (Homo sapiens, UniProt P11712); test: CYP2C9 inhibition in human liver microsomes; settings: ultrapooled human liver microsomes 0.2 mg/mL, 10 μM diclofenac, β-amanitin 0.1–100 μM, pH 7.4, 37 °C, 15 min, LC-MS/MS, n = 3, read-out: IC50, CYP2C9 diclofenac 4′-hydroxylase
T1 construct: from tissue; host or cells: ultrapooled human liver microsomes
T1 sequence (P11712 whole entry): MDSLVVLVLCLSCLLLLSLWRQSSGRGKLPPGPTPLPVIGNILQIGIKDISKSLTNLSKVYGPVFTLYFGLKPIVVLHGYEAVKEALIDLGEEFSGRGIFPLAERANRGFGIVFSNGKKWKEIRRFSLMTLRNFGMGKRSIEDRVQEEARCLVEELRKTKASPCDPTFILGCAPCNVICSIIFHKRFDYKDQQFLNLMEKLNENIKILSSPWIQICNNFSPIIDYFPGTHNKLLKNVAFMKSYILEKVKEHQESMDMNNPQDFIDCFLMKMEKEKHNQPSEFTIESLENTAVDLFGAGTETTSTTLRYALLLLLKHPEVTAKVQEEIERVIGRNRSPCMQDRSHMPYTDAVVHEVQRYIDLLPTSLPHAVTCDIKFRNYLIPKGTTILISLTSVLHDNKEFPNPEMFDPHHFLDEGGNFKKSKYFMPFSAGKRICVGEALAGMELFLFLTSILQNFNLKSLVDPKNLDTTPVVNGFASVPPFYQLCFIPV
Method: β-amanitin inhibition (IC50 values) of CYP1A2, CYP2A6, CYP2B6, CYP2C8, CYP2C9, CYP2C19, CYP2D6, and CYP3A4 enzyme activities in HLMs were evaluated using LC-MS/MS and CYP substrates as previously described. Each incubation mixture was made up to a volume of 100 μL including HLMs (0.2 mg/mL), 50 mM potassium phosphate buffer (pH 7.4), 1.0 mM NADPH, 10 mM magnesium chloride, various concentrations of β-amanitin (0.1–100 μM), a cocktail of seven CYP probe substrates (50 μM phenacetin for CYP1A2, 2.5 μM coumarin for CYP2A6, 2 μM amodiaquine for CYP2C8, 10 μM diclofenac for CYP2C9, 100 μM [S]-mephenytoin for CYP2C19, 5 μM bufuralol for CYP2D6, and 2.5 μM midazolam for CYP3A4 in acetonitrile), or 50 μM bupropion for CYP2B6. The reactions were initiated with NADPH followed by incubation in a shaking water bath at 37 °C for 15 min with or without 30 min preincubation with NADPH. Reactions were stopped with 50 μL of ice-cold methanol containing ^13C2, ^15N-acetaminophen and d9-1′-hydroxybufuralol (ISs). Incubation mixtures were centrifuged at 13,000× g for 8 min at 4 °C. An aliquot (5 μL) of the supernatant from the reaction mixture was analyzed by the previous LC-MS/MS method.

HEK293 control cells = test: Uptake of amanitins into HEK293 control cells; settings: 50 μM amanitin, 5 min, 37 °C, HBSS, LC-HRMS, n = 3
Method: HEK293 cells overexpressing OCT2, MATE2-K, OAT1, OAT3, OATP1B1, and OATP1B3 transporters and HEK293-control cells were maintained in a humidified atmosphere of 5% CO2 at 37 °C in DMEM supplemented with 10% FBS and 5 mM non-essential amino acids. In the case of HEK293-OATP1B1, -OATP1B3, and MATE2-K cells, 2 mM sodium butyrate was added to the culture medium to enhance transport activity. Cells were seeded at 2 × 10^5 cells/well in poly-D-lysine-coated 24-well plates. After 24 h, the growth medium was discarded, and attached cells were washed with HBSS and preincubated for 20 min in HBSS at 37 °C. Stock solutions of α- and β-amanitin and representative inhibitors of transporters were diluted in HBSS to make the final concentration: cimetidine 1 mM (for OCT2), cimetidine 100 μM (for MATE2-K), probenecid 100 μM (for OAT1 and OAT3), and rifampin 100 μM (for OATP1B1 and OATP1B3). Uptake of 50 μM α- and β-amanitin was measured in the absence and presence of representative inhibitors for 5 min at 37 °C. Plates were placed immediately on ice, and cells were then washed twice with 1 mL of ice-cold HBSS. Residual HBSS was removed thoroughly from the plates. Subsequently, 150 μL of 80% methanol containing IS was added to each sample well, and the cell plates were shaken gently for 20 min at 4 °C. The remaining steps were the same as described for plasma sample preparation.

OAT3 = target: T2, OAT3 (Homo sapiens, UniProt Q8TCC7); test: OAT3 transport inhibition in HEK293-OAT3 cells; parameters: host or cells: HEK293 (TransportoCells); settings: 0.1 μM probe substrate, HBSS pH 7.4, β-amanitin 0.01–250 μM (methods), n = 3, read-out: IC50, OAT3-mediated [3H]estrone-3-sulfate uptake
T2 sequence (Q8TCC7 1-542): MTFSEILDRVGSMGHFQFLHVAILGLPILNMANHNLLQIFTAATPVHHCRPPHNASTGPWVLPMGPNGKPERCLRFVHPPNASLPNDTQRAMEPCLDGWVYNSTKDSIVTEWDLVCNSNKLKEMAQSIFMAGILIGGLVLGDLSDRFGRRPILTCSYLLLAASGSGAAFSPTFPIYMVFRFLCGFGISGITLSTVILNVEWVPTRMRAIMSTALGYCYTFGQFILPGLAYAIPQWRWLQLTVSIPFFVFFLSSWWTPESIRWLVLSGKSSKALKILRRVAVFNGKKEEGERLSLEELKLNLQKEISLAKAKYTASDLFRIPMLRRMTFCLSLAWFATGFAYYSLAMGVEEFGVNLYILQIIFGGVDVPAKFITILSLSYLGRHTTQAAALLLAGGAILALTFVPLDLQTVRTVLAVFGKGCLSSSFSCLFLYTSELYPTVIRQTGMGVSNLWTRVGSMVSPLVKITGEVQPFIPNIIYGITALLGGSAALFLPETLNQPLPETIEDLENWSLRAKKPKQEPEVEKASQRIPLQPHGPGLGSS
Method: β-amanitin inhibition (IC50 values) of OCT1, OCT2, MATE2-K, OAT1, OAT3, Na^+/taurocholate co-transporting polypeptide (NTCP), OATP1B1, OATP1B3, P-glycoprotein (P-gp), and breast-cancer-resistant protein (BCRP) transport activities were assessed in HEK293 cells overexpressing individual transporters (TransportoCells™, Corning), LLC-PK1-P-gp (Corning), or LLC-PK1-BCRP (obtained from Dr. A.H. Schinkel, Netherlands Cancer Institute; Amsterdam, The Netherlands), as previously reported. Each incubation mixture was prepared to a final volume of 100 μL HBSS (pH 7.4) containing 0.1 μM probe substrates ([^3H]methyl-4-phenylpyridinium for OCT1 and OCT2, [^14C]metformin for MATE2-K, [^3H]p-aminohippuric acid for OAT1, [^3H]estrone-3-sulfate for OAT3, OATP1B1 and BCRP, [^3H]taurocholate for NTCP, [^3H]17-β-D-estradiol-glucuronide for OATP1B3, [^3H]digoxin for P-gp) and various concentrations of β-amanitin (0.01–250 μM), as previously described.

## CC[C@H](C)[C@@H]1NC(=O)CNC(=O)[C@@H]2Cc3c([nH]c4cc(O)ccc34)[S@+]([O-])C[C@H](NC(=O)CNC1=O)C(=O)N[C@@H](CC(=O)O)C(=O)N1C[C@H](O)C[C@H]1C(=O)N[C@@H]([C@@H](C)[C@@H](O)CO)C(=O)N2 [β-amanitin]
CYP2C9; with 30 min NADPH preincubation
  IC50: > 100 µM
CYP2C9; without NADPH preincubation
  IC50: > 100 µM
HEK293 control cells
  Uptake into HEK293 control cells, β- versus α-amanitin: greater than α-amanitin
OAT3
  IC50: 37.4 µM
